# Measurements reported in patent publication US11045457B2, “Piperidinyl-3-(aryloxy)propanamides and propanoates” (priority 2018, dated 2021).
# Target: SSTR4 (Homo sapiens (Human), UniProt P31391)
# Assay: Inhibition of forskolin stimulated cAMP in CHO-K1 cells overexpressing SSTR4
# Format: cell-based
# Settings: not given
# Method: Inhibition of Forskolin Stimulated cAMP in Cells Overexpressing SSTR4
# This cell-based assay measures the ability of compounds to inhibit forskolin stimulated cAMP in CHO-K1 cells overexpressing SSTR4. CHO-K1 cells overexpressing SSTR4 (CHO-SSTR4) are purchased from DiscoveRx (product code 95-0059C2). The CHO-SSTR4 cells are maintained in F12K media with 10% Fetal Bovine Serum (Hyclone), 1% Pen/Strep (Life Technologies), and 800 μg/mL G418 (Life Technologies). […] The next day, the culture media is removed from the cells and the cells are washed (added then removed) with Kreb's Ringer Buffer (ZenBio, KRB-1000 mL). […] The cells are incubated in […] for 30 minutes at room temperature. Cellular cAMP levels are detected with a HTRF LANCE Ultra cAMP kit (Perkin Elmer, catalog number TRF0264).
# The assay is performed in accordance with the manufacturer's instructions. Five μL of diluted Eu-W8044 labeled streptavidin (dilution: 1:50 in cAMP Detection Buffer) is added to each well. Then 5 μL of diluted biotin cAMP (dilution: 1:150 in cAMP Detection Buffer) is added to each well. The plates are covered and allowed to incubate for 60 minutes at room temperature on a shaker. […] The pEC50 values are generated using Activity Base for Screening Data Management.
# Sequence of SSTR4 (P31391 whole entry): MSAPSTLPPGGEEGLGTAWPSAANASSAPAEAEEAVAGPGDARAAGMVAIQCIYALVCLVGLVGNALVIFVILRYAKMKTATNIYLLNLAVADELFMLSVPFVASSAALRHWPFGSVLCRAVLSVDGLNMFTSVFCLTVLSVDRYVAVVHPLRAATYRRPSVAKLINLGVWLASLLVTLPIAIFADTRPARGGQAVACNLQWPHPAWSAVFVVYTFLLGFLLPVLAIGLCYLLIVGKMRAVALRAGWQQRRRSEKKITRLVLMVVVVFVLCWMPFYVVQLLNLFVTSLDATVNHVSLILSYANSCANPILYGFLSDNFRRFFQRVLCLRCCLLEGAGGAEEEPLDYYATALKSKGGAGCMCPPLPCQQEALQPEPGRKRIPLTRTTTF
row,SSTR4 Activity pEC50,Structure (SMILES)
1,6.5,"CN1CCC(NC(=O)C(C)(C)COc2ccccc2F)CC1 [Example 195, 3-(2-fluorophenoxy)-2,2-dimethyl-N-(1-methylpiperidin-4-yl)propanamide]"
2,7.1,"CN1CCC(NC(=O)C(C)(C)COc2ncccc2C(F)(F)F)CC1(C)C (stereo not drawn) [Example 132, 2,2-dimethyl-3-((3-(trifluoromethyl)pyridin-2-yl)oxy)-N-(1,2,2-trimethylpiperidin-4-yl)propanamide]"
3,8.9,"C[C@H]1CN(C)CC[C@@H]1NC(=O)C(C)(C)COc1ccccc1Cl [Example 193, 3-(2-chlorophenoxy)-N-((3S,4S)-1,3-dimethylpiperidin-4-yl)-2,2-dimethylpropanamide]"
4,6.2,"CC[C@H]1CN(C)CC[C@@H]1NC(=O)C(C)(C)COc1ncccc1C(F)(F)F [Example 145, N-((3S,4S)-3-ethyl-1-methylpiperidin-4-yl)-2,2-dimethyl-3-((3-(trifluoromethyl)pyridin-2-yl)oxy)propanamide]"
5,6.8,"CN1CC[C@@H](NC(=O)C(C)(C)COc2ncccc2OC(F)(F)F)[C@H](c2ccccc2)C1 (relative stereo) [Example 167, 2,2-dimethyl-N-(trans-1-methyl-3-phenylpiperidin-4-yl)-3-((3-(trifluoromethoxy)pyridin-2-yl)oxy)propanamide]"
6,6.1,"CN1CCC(NC(=O)C(C)(C)COc2ncccc2C(F)(F)F)C(C)(C)C1 (stereo not drawn) [Example 112, 2,2-dimethyl-3-((3-(trifluoromethyl)pyridin-2-yl)oxy)-N-(1,3,3-trimethylpiperidin-4-yl)propanamide]"
7,7.0,"CN1CCC(NC(=O)C(C)(C)COc2ncccc2OC(F)(F)F)CC12CC2 (stereo not drawn) [Example 174, 2,2-dimethyl-N-(4-methyl-4-azaspiro[2.5]octan-7-yl)-3-((3-(trifluoromethoxy)pyridin-2-yl)oxy)propanamide]"
8,7.3,"Cc1cnc(OCC(C)(C)C(=O)NC2CCN(C)CC2)c(C(F)(F)F)c1 [Example 101, 2,2-dimethyl-3-((5-methyl-3-(trifluoromethyl)pyridin-2-yl)oxy)-N-(1-methylpiperidin-4-yl)propanamide]"

# Continued, molecule first:
row,Structure (SMILES),SSTR4 Activity pEC50
1,"CN1CC[C@H](CNC(=O)C(C)(C)COc2ncccc2C(F)(F)F)C1 [Example 36, (R)-2,2-dimethyl-N-((1-methylpyrrolidin-3-yl)methyl)-3-((3-(trifluoromethyl)pyridin-2-yl)oxy)propanamide]",6.1
2,"Cc1cc(Cl)cnc1OCC(C)(C)C(=O)NC1CCN(C)CC1 [Example 48, 3-((5-chloro-3-methylpyridin-2-yl)oxy)-2,2-dimethyl-N-(1-methylpiperidin-4-yl)propanamide]",6.8
3,"CN1CCC(NC(=O)C2(COc3ncccc3C3CC3)CCC2)CC1 [Example 89, 1-(((3-cyclopropylpyridin-2-yl)oxy)methyl)-N-(1-methylpiperidin-4-yl)cyclobutane-1-carboxamide]",6.8
4,"Cc1c(C#N)cccc1OCC(C)(C)C(=O)NC1CCN(C)CC1 [Example 75, 3-(3-cyano-2-methylphenoxy)-2,2-dimethyl-N-(1-methylpiperidin-4-yl)propanamide]",5.5
5,"CCc1cccnc1OCC(C)(C)C(=O)NC1CCN(C)CC1 [Example 85, 3-((3-ethylpyridin-2-yl)oxy)-2,2-dimethyl-N-(1-methylpiperidin-4-yl)propanamide]",7.1
6,"CN1CCC(NC(=O)C(C)(C)COc2ncc(F)cc2F)CC1 [Example 40, 3-((3,5-difluoropyridin-2-yl)oxy)-2,2-dimethyl-N-(1-methylpiperidin-4-yl)propanamide]",6.1
7,"Cc1cnc(OCC(C)(C)C(=O)N[C@H]2CCN(C)C[C@H]2C)c(C)c1 (relative stereo) [Example 32, cis-N-(1,3-dimethylpiperidin-4-yl)-3-((3,5-dimethylpyridin-2-yl)oxy)-2,2-dimethylpropanamide]",5.8
8,"CN1CC[C@@H](CNC(=O)C(C)(C)COc2ncccc2C(F)(F)F)C1 [Example 37, (S)-2,2-dimethyl-N-((1-methylpyrrolidin-3-yl)methyl)-3-((3-(trifluoromethyl)pyridin-2-yl)oxy)propanamide]",6.3
9,"CN1CCC(NC(=O)C(C)(C)COc2ncccc2C#N)CC1 [Example 3, 3-((3-cyanopyridin-2-yl)oxy)-2,2-dimethyl-N-(1-methylpiperidin-4-yl)propanamide]",5.8
10,"CN1CCC(NC(=O)C2(COc3ccccc3Cl)CC2)CC1 [Example 81, 1-((2-chlorophenoxy)methyl)-N-(1-methylpiperidin-4-yl)cyclopropane-1-carboxamide]",6.3
11,"CN1CCC(NC(=O)C(C)(C)COc2ncncc2C2CC2)CC1 [Example 5, 3-((5-cyclopropylpyrimidin-4-yl)oxy)-2,2-dimethyl-N-(1-methylpiperidin-4-yl)propanamide]",6.8
12,"CN1CCC(NC(=O)C(C)(C)COc2ncc(F)cc2Cl)CC1 [Example 45, 3-((3-chloro-5-fluoropyridin-2-yl)oxy)-2,2-dimethyl-N-(1-methylpiperidin-4-yl)propanamide]",5.8
13,"CN1CCC(NC(=O)C(C)(C)COc2cccc3c2CCC3)CC1 [Example 79, 3-((2,3-dihydro-1H-inden-4-yl)oxy)-2,2-dimethyl-N-(1-methylpiperidin-4-yl)propanamide]",7.0
14,"CCc1nccnc1OCC(C)(C)C(=O)NC1CCN(C)CC1 [Example 87, 3-((3-ethylpyrazin-2-yl)oxy)-2,2-dimethyl-N-(1-methylpiperidin-4-yl)propanamide]",6.4

# Same assay, conditions: read-out: SSTR4 Activity pEC50 (converted)
row,EC50 [nM],Structure (SMILES)
1,631,"C[C@H]1C[C@H](NC(=O)C(C)(C)COc2ncccc2C(F)(F)F)CN1C (relative stereo) [Example 133, trans-N-(1,5-dimethylpyrrolidin-3-yl)-2,2-dimethyl-3-((3-(trifluoromethyl)pyridin-2-yl)oxy)propanamide]"
2,251,"Cc1cnc(OCC(C)(C)C(=O)N[C@@H]2CN(C)C[C@H]2C)c(C)c1 (relative stereo) [Example 183, 3-((3,5-dimethylpyridin-2-yl)oxy)-N-(trans-1,4-dimethylpyrrolidin-3-yl)-2,2-dimethylpropanamide]"
3,631,"Cc1ccc([C@@H]2CN(CC#N)C[C@H]2NC(=O)C(C)(C)COc2ncccc2C(F)(F)F)cn1 (relative stereo) [Example 103, trans-N-(1-(cyanomethyl)-4-(6-methylpyridin-3-yl)pyrrolidin-3-yl)-2,2-dimethyl-3-((3-(trifluoromethyl)pyridin-2-yl)oxy)propanamide]"
4,25.1,"C[C@H]1C[C@H](NC(=O)C(C)(C)COc2ncccc2OC(F)(F)F)CCN1C (relative stereo) [Example 135, trans-N-(1,2-dimethylpiperidin-4-yl)-2,2-dimethyl-3-((3-(trifluoromethoxy)pyridin-2-yl)oxy)propanamide]"
5,2000,"C[C@@H]1C[C@H](NC(=O)C(C)(C)COc2ncccc2C(F)(F)F)CN1C (relative stereo) [Example 134, cis-N-(1,5-dimethylpyrrolidin-3-yl)-2,2-dimethyl-3-((3-(trifluoromethyl)pyridin-2-yl)oxy)propanamide]"
6,251,"CC(C)(COc1ncccc1C(F)(F)F)C(=O)N[C@@H]1CNC[C@H]1F (relative stereo) [Example 130, trans-N-(4-fluoropyrrolidin-3-yl)-2,2-dimethyl-3-((3-(trifluoromethyl)pyridin-2-yl)oxy)propanamide]"
7,251,"CN1CC[C@@H](c2cnn(C)c2)[C@H](NC(=O)C(C)(C)COc2ncccc2C(F)(F)F)C1 (relative stereo) [Example 169, 2,2-dimethyl-N-(trans-1-methyl-4-(1-methyl-1H-pyrazol-4-yl)piperidin-3-yl)-3-((3-(trifluoromethyl)pyridin-2-yl)oxy)propanamide]"
8,126,"CC[C@H]1[C@H](NC(=O)C(C)(C)COc2ncccc2C(F)(F)F)CCN1C (relative stereo) [Example 149, trans-N-(2-ethyl-1-methylpyrrolidin-3-yl)-2,2-dimethyl-3-((3-(trifluoromethyl)pyridin-2-yl)oxy)propanamide]"
9,79.4,"CCO[C@@H]1CN(C)C[C@H]1NC(=O)C(C)(C)COc1ccccc1CC (relative stereo) [Example 95, trans-N-(4-ethoxy-1-methylpyrrolidin-3-yl)-3-(2-ethylphenoxy)-2,2-dimethylpropanamide]"

# The next lines start with the molecule.
row,Structure (SMILES),EC50 [nM]
1,"CN1C[C@@H](NC(=O)C(C)(C)COc2ncccc2C(F)(F)F)[C@H](c2ccc(Cl)cc2)C1 (relative stereo) [Example 56, trans-N-(4-(4-chlorophenyl)-1-methylpyrrolidin-3-yl)-2,2-dimethyl-3-((3-(trifluoromethyl)pyridin-2-yl)oxy)propanamide]",25.1
2,"Cc1cccnc1OCC(C)(C)C(=O)N[C@@H]1CN(C)C[C@H]1c1ccc(C(F)(F)F)nc1 (relative stereo) [Example 57, trans-2,2-dimethyl-N-(1-methyl-4-(6-(trifluoromethyl)pyridin-3-yl)pyrrolidin-3-yl)-3-((3-methylpyridin-2-yl)oxy)propanamide]",63.1
